Measurements: patent US12564640B2, “Protein-antiviral compound conjugates” (priority 2020, dated 2026)

Key:
[1] = tested on: influenza A/H1N1/PR8 virus; assay: microbe, parasite or virus in culture; assay type: cell-based, H1N1 A/Puerto Rico/08/1934 influenza virus; settings: for Fold increase over parental antibody: relative to mAb11729 of the same run
[2] = tested on: influenza A/H3N2/HK68x31 virus; assay: Antiviral efficacy assay, HK68x31; assay type: cell-based
[3] = tested on: influenza A/H1N1/Cal09 virus; assay: Antiviral efficacy assay, Cal09; assay type: cell-based; settings: relative to mAb11729

| Molecule | IC50 ([1]; MDCK London cells, Runs 1-4) | Fold increase over parental antibody [1] | IC50 [2] | Fold increase over parental antibody [3] |
| --- | --- | --- | --- | --- |
| O=C(O)[C@H]1C2CCC(CC2)[C@@H]1Nc1nc(-c2c[nH]c3ncc(F)cc23)ncc1F [VX-787, reference compound] | 9.46 nM | 3.32 fold | 7.05 nM | – |
| mAb11729: anti-hemagglutinin (anti-HA) monoclonal antibody, HCVR SEQ ID NO: 18, LCVR SEQ ID NO: 26 (antibody, V domains shown) VH: QVQLVQSGAEVKKSGSSVKVSCKASGGTFSSYAISWVRQAPGQGLEWMGGIIPIFGTPSYAQKFQDRVTITTDESTSTVYMELSSLRSEDTAVYYCARQQPVYQYNMDVWGQGTTVTVSS VL: DIQMTQSPSSLSASVGDRVTITCRASQGIRNNLGWYQQKPLKAPKRLIYAASSLQSGVPSRFSGSGSGTEFTLTISSLQPEDFATYYCLQYNNYPWTFGQGTKVEIK | – | 1.00 fold | – | 1.00 fold |
